Assay results as given in paper PMC5820046 (Internal Medicine, 2017).
Where two headings read alike, the source gives them in different places.

Experiments:
plasma protein [1] = assay: Plasma protein binding of DAP, present case; assay type: in vitro ADME, human; details: patient plasma, DAP 7 mg/kg every 48 hours
[2] = present case, DAP 7 mg/kg every 48 hours, chronic renal failure, HPLC
patient [3] = details: present case
T cells = details: present case
patient [4] = details: present case, rapid type
patient [5] = details: present case (case 37)
patients [6] = details: phase III clinical trials; cited from earlier work
patients [7] = details: FDA adverse event reporting system, 2004 to 2010; cited from earlier work
[8] = healthy volunteers; DAP 6 mg/kg every 24 hours; cited from earlier work
plasma protein [9] = details: healthy volunteers, escalating dose levels; cited from earlier work
patients [10] = details: cited from earlier work

CCCCCCCCCC(=O)N[C@@H](Cc1c[nH]c2ccccc12)C(=O)N[C@H](CC(N)=O)C(=O)N[C@@H](CC(=O)O)C(=O)N[C@@H]1C(=O)NCC(=O)N[C@@H](CCCN)C(=O)N[C@@H](CC(=O)O)C(=O)N[C@H](C)C(=O)N[C@@H](CC(=O)O)C(=O)NCC(=O)N[C@H](CO)C(=O)N[C@@H]([C@H](C)CC(=O)O)C(=O)N[C@@H](CC(=O)c2ccccc2N)C(=O)O[C@@H]1C [DAP, Daptomycin]
percentage of plasma protein-bound DAP (plasma protein [1]): 87.8%
median plasma DAP Cmin [2]: 27400 ng/mL
Skin tests, prick-puncture administration and patch tests, reaction (patient [3]): negative
drug lymphocyte stimulation test (DLST) reaction (T cells): negative
intracutaneous test reaction (patient [4]): positive
intracutaneous test reaction (patient [4]; listed as daptomycin): positivity
Imaging findings (patient [5]; DAP 7 mg/kg): Bilateral, peripheral nodules and patchy consolidations
Prognosis (patient [5]; initial treatment withdrawal): Recover
myopathic symptoms, patients (patients [6]): 0.2%
serum creatinine kinase (CK) elevation, patients (patients [6]): 2.8%
patients who developed DAP-associated EP (patients [7]): 63 patients
median plasma DAP Cmin [8]: 9130 ng/mL
percentage of DAP plasma protein binding (plasma protein [9]): consistent across dose levels
DAP Cmin associated with an increased probability of CK elevation (patients [10]): 24300 ng/mL
